Counter-ions that a name gives are not always drawn. Like-named read-outs stand apart in the source and are kept apart here.
How the values were obtained:
[1] = tested on: salicylic acid binding protein; test: Binding of 14C-labelled ligands by partially purified SABP; design: species or system tobacco; settings: for [14C] radioactivity bound, with protein / [14C] radioactivity bound, without protein: 50 μM ligand, n = 3, SD; for [14C] radioactivity bound, with protein: 3 mg/ml partially purified SABP; for [14C] radioactivity bound, without protein: no protein
Experimental: Binding was assayed with 3 mg/ml of the
(§1) A key element during the characterization and the purification process is a simple, inexpensive, sensitive and reliable method for determining the salicylic acid binding activity. For this purpose, spin-column exclusion chromatography was used to separate the bound [^14 C] salicylic acid (excluded) from the bulk free salicylic acid (included). Specifically, a 1.5 ml Eppendorf tube was punctured at the tip with a 20-gauge needle and a small amount of glass wool was added to cover the small hole. The tube was then filled with Bio-Gel P-6DG desalting gel (exclusion limit 6 KDa; purchased from Bio-Rad, Melville, N.Y.) which have been swollen in water. An alternative gel is Sephadex G-25 fine (from Pharmacia, Piscataway, N.J.). Excess liquid in the gel was removed and centrifuged for 5 minutes at full speed in a Dynamic centrifuge (Becton Dickinson). The process was then repeated several times until the gel filled the tube. After incubation of an aliquot of the extract or column fractions for 2 hr at 4° C. with 5 μM-20 μM [^14 C salicylic acid] (specifically radioactivity 55 Ci/mol; purchased from New England Nuclear), 150 μl of proteins binding sample was loaded onto the tube column, which was then rapidly centrifuged for 2 minutes at full speed and the solution of proteins and bound [^14 C-salicylic acid] that was excluded from the gel was collected into another tube that had been placed under the tube column during the centrifugation. One hundred microliters of this solution was then used to determine the amount of bound salicylic acid. With this binding assay, characterization of the salicylic acid binding protein can be carried out very rapidly. For example, to determine the inhibitory effect of various salicylic acid analogues on salicylic acid binding activity, these individual analogues were included in the binding mixture containing both the protein and [^14 C] salicylic acid during the 2 hr incubation, and resulting binding activity was determined in comparison to the activity in the absence of these analogues. Likewise, to determine the effect of pH and antioxidants on the binding activity the protein sample was either dialyzed against a large volume of buffers with different pH or antioxidants were added to the protein sample to various concentrations and the resulting binding activities were then determined with the spin-column method in comparison with the activity determined in the absence of these treatments.

SABP = tested on: SABP; design: concentration or dose not given beside the values; settings: Table 6; previously published data (Chen et al. 1993); cited from earlier work
[2] = target: T1, catalase activity of SABP (Nicotiana tabacum, UniProt P49319); test: Catalase activity of highly purified SABP (luminol method); type: biochemical, tobacco; settings: for inhibition at 1000 µM: 0.05 h, 1 mM SA or analogue, 1 mM H2O2, 500 ng highly purified SABP; for Inhibition of the catalase activity of SABP (in words): compared with SA
T1 sequence (P49319 1-492): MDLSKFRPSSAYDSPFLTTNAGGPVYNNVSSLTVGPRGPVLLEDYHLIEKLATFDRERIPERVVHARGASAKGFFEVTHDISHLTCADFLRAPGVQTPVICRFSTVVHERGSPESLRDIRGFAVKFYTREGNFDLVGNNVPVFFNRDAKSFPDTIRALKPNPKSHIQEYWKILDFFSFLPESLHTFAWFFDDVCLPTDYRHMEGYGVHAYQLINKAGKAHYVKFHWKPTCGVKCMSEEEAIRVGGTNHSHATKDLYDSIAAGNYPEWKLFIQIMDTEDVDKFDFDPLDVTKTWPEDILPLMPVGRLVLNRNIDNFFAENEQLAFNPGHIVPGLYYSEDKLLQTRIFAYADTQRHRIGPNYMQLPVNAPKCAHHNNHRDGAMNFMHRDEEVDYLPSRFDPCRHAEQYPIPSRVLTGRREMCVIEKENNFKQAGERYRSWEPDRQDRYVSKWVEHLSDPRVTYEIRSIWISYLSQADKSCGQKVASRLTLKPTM
Experimental: Aliquots (50 μl) were removed from the assay mixture at 30 second intervals to assay for amount of H2 O2 remaining using the luminol method as has been described by Warm and Laties, Phytochem. […] The tube was placed in the measuring chamber and assay was initiated with automatic injection into the mixture of 100 μl of 0.5 mM K3 Fe(CN)6 in 0.2N NH4 OH, pH 9.5. Measurements were integrated over 5 second periods. H2 O2 was calculated from the standard curve constructed with known amounts of H2 O2. Rate constants of SABP catalase activity in the presence or absence of SA or its analogues were then calculated based on a first-order mechanism.

[3] = tested on: resistance or PR gene expression; design: key: ++: indicates a high level of biological activity; +: indicates a lower level of biological activity; ±: indicates low, but detectable biological activity in some assays; -: indicates no biological activity; settings: Table 3; values reported in literature; cited from earlier work
[4] = tested on: salicylic acid binding protein; test: Competitive [14C] salicylic acid binding assay (spin-column); design: species or system tobacco; settings: [14C] salicylic acid 20 μM; for Inhibition (%) 2×: 40 μM (2×) unlabeled competitor; for Inhibition (%) 10×: 200 μM (10×) unlabeled competitor
Experimental: The 180 kDa native binding protein isolated was tested for binding affinity and specificity. A competitive assay was established using salicylic acid binding protein fractionated from plants as previously described.
as §1, with “With this binding assay, characterization of the salicylic acid binding protein can be carried out very rapidly.” left out

TMV = type: in vivo, tobacco mosaic virus
Experimental: The SA/SAG valves are given in micrograms per gram fresh weight of leaf tissue and represent averages of values from 3-6 treated plants at 6 days past injection. […] For determination of reduction in lesion size, longitudinal halves of 2 leaves on 3-6 plants were injection with chemicals, and six days later the entire leaf was infected with TMV. Twenty lesions were measured on each half of the leaf seven days post infection; the values given represent the average percent reduction in lesion diameter in the treated leaf half compared to the untreated half.

ascorbate peroxidase = test: Ascorbate peroxidase activity in tobacco leaf extracts; type: biochemical, Nicotiana tabacum cv. Xanthi nc; settings: 200 μM compound, corrected for quenching of auto oxidation
Experimental: […] Two grams of leaves from 6-8 week old tobacco plants (Nicotiana tabacum cv. Xanthi nc) grown at 22° C. in a 14 hr light cycle were homogenized under liquid nitrogen using a pestle and mortar.
To obtain ascorbate peroxidase-containing extracts, the soluble proteins were extracted by grinding the powder in 10 ml of 100 mM potassium phosphate, pH 7, containing […] ascorbate and 1% (weight/volume) polyvinylpyrrolidone, with a small amount of quartz sand. The homogenate was centrifuged at 14,000 g for 5 min. […] The pellet resulting from centrifugation (14,000 g, 15 min.) was resuspended in extraction buffer (100 mM potassium phosphate, pH7, containing 0.25 mM ascorbate and 1% (weight/volume) polyvinylpyrrolidone) and desalted on a PD-10 column (Pharmacia) equilibrated with 50 mM potassium phosphate, pH 7, containing 100 μM ascorbate. The extract was used immediately. […] The amount of protein per assay was 30-50 μg. Oxidation of ascorbate was followed by the decrease in the absorbance at 290 nm.
The values illustrated in FIG. 17 are the mean values for three replicated assays.

| inhibition at 1000 µM [2] [%] | Inhibition (%) 2× [4] [%] | Inhibition (%) 10× [4] [%] | Compound | Inhibition (%) [14C]SA binding (SABP) [%] | Biological activity [3] | other results |
| --- | --- | --- | --- | --- | --- | --- |
|  |  |  | CC(=O)Oc1ccccc1[14C](=O)O [[carboxyl-^14 C] acetylsalicylic acid] |  |  | [14C] radioactivity bound, with protein [1]: 397 ± 25 dpm/100 μl; [14C] radioactivity bound, without protein [1]: 112 ± 10 dpm/100 μl |
| 15.3 | 1 | 10 | O=C(O)c1cccc(O)c1O [2,3-Dihydroxybenzoic acid] | 9 | ± | Inhibition of the catalase activity of SABP (in words) [2]: poor inhibitor |
|  |  |  | [Acetyl-^14 C] acetylsalicylic acid |  |  | [14C] radioactivity bound, with protein [1]: 96 ± 10 dpm/100 μl; [14C] radioactivity bound, without protein [1]: 104 ± 9 dpm/100 μl |
|  |  |  | Cc1ncc(C[n+]2csc(CCO)c2C)c(N)n1 [thiamine-HCl] |  |  | Reduction in lesion size (%) (TMV; in vivo): 71% |
|  |  |  | CCC(N)C(=O)O (stereo not drawn) [α-amino butyric acid] |  |  | Reduction in lesion size (%) (TMV; TMV infection six days after injection, lesions measured seven days post infection, treated vs untreated leaf half): 63% |
|  |  |  | O=C(O)[14c]1ccccc1O [[^14 C] salicylic acid] |  |  | [14C] radioactivity bound, with protein [1]: 989 ± 78 dpm/100 μl; [14C] radioactivity bound, without protein [1]: 89 ± 7 dpm/100 μl |
| 5.2 | -1 | -2 | O=C(O)c1ccc(O)cc1O [2,4-Dihydroxybenzoic acid] | -4 | - |  |
|  |  |  | [Ba+2].[Cl-].[Cl-] [BaCl2, barium chloride] |  |  | Reduction in lesion size (%) (TMV; in vivo): 60% |
| 3.2 | 1 | -1 | O=C(O)c1cc(O)ccc1O [2,5-Dihydroxybenzoic acid] | 1 | - |  |
| 91.3 | 51 | 91 | O=C(O)c1c(O)cccc1O [2,6-Dihydroxybenzoic acid] | 92 | ++ | Inhibition of the catalase activity of SABP (in words) [2]: somewhat stronger; % Inhibition of ascorbate peroxidase (ascorbate peroxidase): 72 ± 8% |

| Compound | inhibition at 1000 µM [2] [%] | Inhibition (%) 2× [4] [%] | Inhibition (%) 10× [4] [%] | Inhibition (%) [14C]SA binding (SABP) [%] | Biological activity [3] | other results |
| --- | --- | --- | --- | --- | --- | --- |
| CC(=O)Oc1ccccc1C(=O)O [Acetylsalicylic acid] | 53.6 | 25 | 57 | 48 | ++ | Binding by the salicylic acid binding protein ([1]; conclusion from Table 4): not actually bound; Inhibition of the catalase activity of SABP (in words) [2]: weaker than SA |
| O=C(O)c1ccc(O)cc1 [4-Hydroxybenzoic acid] | 4.1 | 1 | -2 | -2 | - | % Inhibition of ascorbate peroxidase (ascorbate peroxidase): 0 ± 6% |

Reference: patent US5989846A, “Assays to identify inducers of plant defense resistance” (Rutgers, The State University of New Jersey, priority 1995, dated 1999)
